Results: patent US20250059187A1, “COVALENTLY BINDING INHIBITORS OF G12S, G12D AND/OR G12E MUTANTS OF K-RAS GTPASE” (The Regents of the University of California, priority 2021, published 2025)

How the values were obtained:
[1] = system: A549 cells (homozygous KRAS p.G12S mutation); test: Immunoblot and Raf-RBD pulldown in A549 cells; type: cell-based; conditions: 2 h
Protocol: (§1) Cells were passed for at least two generations after cryorecovery before they were used for assays. All cell lines were tested mycoplasma negative using MycoAlert™ Mycoplasma Detection Kit (Lonza). When indicated, cells were treated with drugs at 40-60% confluency at a final DMSO concentration of 1%. At the end of treatment period, cells were placed on ice. Unless otherwise indicated, adherent cells were washed once with ice-cold PBS (1 mL), scraped with a spatula, and pelleted by centrifugation (500×g, 5 min). Suspension cells were pelleted by centrifugation (500×g, 5 min), washed with 1 mL ice-cold PBS, and pelleted again. Cells were lysed in RIPA buffer supplemented with protease and phosphatase inhibitors (cOmplete and phosSTOP, Roche) on ice for 10 min. For RBD pulldown experiments, cells were lysed in Co-IP Lysis Buffer in lieu of RIPA buffer. Lysates were clarified by high-speed centrifugation (19,000×g, 10 min). Concentrations of lysates were determined with protein BCA assay (Thermo Fisher) and adjusted to 2 mg/mL with additional RIPA buffer (or Co-IP Lysis Buffer). Samples were mixed with 5×SDS Loading Dye and heated at 95° C. for 5 min.
Ras·GTP pulldown was performed with GST-RBD agarose beads (Cytoskeleton, 10 μL, 30 μg loaded GST-RBD). 50 μL lysate (2 mg/mL) was mixed with 10 μL beads, and the suspension was incubated at 4° C. for 1 h with constant end-to-end rotation. The beads were settled by centrifugation (500×g, 5 min) and the supernatant was carefully removed. The beads were washed with 2×500 μL ice-cold Co-IP wash buffer. Bound protein was eluted with 10 μL 2×SDS Loading Buffer.
Membranes were blocked in 5% BSA-TBST for 1 h at 23° C. […] After washing the membrane three times with TBST (5 min each wash), secondary antibodies (goat anti-rabbit IgG-IRDye 800 and goat anti-mouse IgG-IRDye 680, Li-COR) were added as solutions in 5% skim milk-TBST at the dilutions recommended by the manufacturer. Secondary antibody binding was allowed to proceed for 1 h at 23° C. The membrane was washed three times with TBST (5 min each wash) and imaged on a Li-COR Odyssey fluorescence imager.

[2] = system: A375 cells (wild-type KRAS); test: Immunoblot in A375 cells; type: cell-based; conditions: 10 μM, 2 h
Protocol: as §1, with “Samples were mixed with 5×SDS Loading Dye and heated at 95° C. for 5 min.” left out
(§2) Unless otherwise noted, SDS-PAGE was run with Novex 16% Bis-Tris gel (Invitrogen) in MES running buffer (Invitrogen) at 200 V for 60 min following the manufacturer's instructions. […] The membrane was washed three times with TBST (5 min each wash) and imaged on a Li-COR Odyssey fluorescence imager.

[3] = system: SW1990 cells (homozygous KRAS p.G12D); test: Immunoblot in SW1990 cells (G12S ligand); type: cell-based; conditions: 10 μM, 2 h
Protocol: as §1, with “Samples were mixed with 5×SDS Loading Dye and heated at 95° C. for 5 min.” left out
as §2

[4] = system: H358 cells (heterozygous KRAS p.G12C); test: Immunoblot in H358 cells; type: cell-based; conditions: 10 μM, 2 h
Protocol: as §1, with “Samples were mixed with 5×SDS Loading Dye and heated at 95° C. for 5 min.” left out
as §2

Ba/F3:K-Ras(G12S) cells = test: Phospho-ERK assay in Ba/F3:K-Ras(G12S) cells; type: cell-based, murine; conditions: 1 h treatment
Protocol: Ba/F3 parental cells were pelleted and resuspend in IL-3 supplemented growth medium (RPMI 1640, 10% heat-inactivated FBS, 10 ng/mL mouse IL-3 medium) to 1×10^7/mL. Ba/F3 K-Ras(G12S) transductant cells were pelleted and resuspended in IL-3 free growth medium (RPMI 1640, 10% heat-inactivated FBS) to 1×10^7/mL. 25 μL cells were added to each well of a 96-well plate (2.5×10^5 cells/well), followed by 5 μL 6× compound solutions (6% DMSO). The mixture was incubated at 37° C. for 1 h. Cell lysis and subsequent high-throughput phospho-ERK assay was performed using Cisbio Advanced phospho-ERK (Thr202/Tyr204) cellular kit (PerkinElmer 64AERPEG) following the manufacturer's instructions.

K-Ras(G12S) = K-Ras(G12S) (Homo sapiens, UniProt P01116, G12S); test: Covalent modification of recombinant K-Ras(G12S) by whole-protein mass spectrometry; type: binding; design: human K-Ras (G12S, aa 1-169); 6xHis tag + TEV cleavage site (N, cleaved yes); made in house; host or cells: E. coli BL21(DE3); conditions: 23° C.
In short: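 Recombinant K-Ras diluted to 400 nM or 1 μM in 20 mM HEPES pH 7.5, 150 mM NaCl, 1 mM MgCl2 and incubated with compound added from 100× DMSO stock. Modification extent measured by electrospray whole-protein mass spectrometry; kinetics used 1:1 mixing with 400 nM protein and injection time stamps for elapsed time.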

IC50 ([1]; Homo sapiens, A549 cells, read-out: apparent IC50, inhibition of Ras signaling): ~3000 nM
covalent reaction with K-Ras(G12S)·GDP (K-Ras(G12S); 10 μM compound): enhanced reaction
time to 100% modification of K-Ras(G12S)·GDP (K-Ras(G12S); 10 μM): < 10 min
% covalent modification of K-Ras G12S (K-Ras(G12S); 24-h incubation, 100 μM compound, pH 7.5): 100%
Compound: O=C1O[C@H]2CN(c3nc(OCC45CCCN4CCC5)nc4c(F)c(-c5cccc6cccc(Cl)c56)ncc34)CC[C@@H]12 [5′]
effects on phospho-Akt, phospho-Erk and Ras·GTP levels ([1]; 10 μM): nearly complete loss of Ras·GTP and concomitant inhibition of phospho-Erk
signaling in A375 cells [2]: did not perturb the signaling
signaling in SW1990 cells [3]: did not perturb the signaling
phospho-Erk in H358 cells [4]: weak inhibition of phospho-Erk
phospho-ERK levels (Ba/F3:K-Ras(G12S) cells): dose-dependent reduction of phospho-ERK levels
